Consider nine molecules from patent publication US5468754A, “11,7 substituted camptothecin derivatives and formulations of 11,7 substituted camptothecin derivatives and methods for uses thereof” (priority 1994, dated 1995).

Like-named read-outs stand apart in the source and are kept apart here.

For data set [1] the following is noted: cited from earlier work.
The conditions of data set [2]: cited from earlier work. The source holds these as a separate data set.
The nature of data set [3]: Solubility in DMA or DMI. It is filed as physicochemical. The conditions noted are these: organic solvent or mixture, in presence of pharmaceutically acceptable acid. How it is done: Yet another embodiment of this invention for oral administration to a patient with cancer is 11,7-HECPT or 11,7-HMCPT dissolved in dimethylisosorbide (DMI) or dimethylacetamide (DMA) in the presence of a pharmaceutically acceptable acid. More specifically, approximately 10 mg of 11,7-HECPT or 11,7-HMCPT can be dissolved in each milliliter of DMA. However, only approximately 5.0 mg of 11,7-HECPT or 11,7-HMCPT can be dissolved in each milliliter of DMI.

The conditions of data set [4]: more toxic than sodium camptothecin, mice; cited from earlier work.
In data set [5] the test system is L1210 cells. Particulars: cited from earlier work.
Data set [6] has as its system Topoisomerase I, purified from calf thymus. The conditions noted are these: cited from earlier work.
For data set [7] the following is noted: cited from earlier work. The source holds these as a separate data set.
Data set [8] relates to Topoisomerase I, purified from human colon carcinoma cells. Particulars: cited from earlier work.
Data set [9] concerns topoisomerase I. Particulars: cited from earlier work.
Data set [10] has as its system MOLT3 cells. The conditions noted are these: more potent than CPT-11; cited from earlier work.
The subject of data set [11] is topoisomerase I enzyme of P388 cells. The conditions noted are these: greater than CPT-11; cited from earlier work.
The conditions of data set [12]: above 30 mg/m^2/d CPT-11, 5 day continuous infusion; cited from earlier work.
For data set [13] the following is noted: Kaneda et al.; cited from earlier work.
For data set [14] the following is noted: in vivo; cited from earlier work.
Data set [15] relates to P388 tumor. Particulars: intermittent bolus (days 1, 5, and 9), intraperitoneal; mice; cited from earlier work.
For data set [16] the following is noted: similar form; vs intravenous administration (U.S. Pat. No. 4,713,246); cited from earlier work.
The conditions of data set [17]: compared with parent compound camptothecin; cited from earlier work.
Setting [18] is: dimethylacetamide, read-out: solubility in DMA.
[19] abbreviates: dimethylisosorbide, read-out: solubility in DMI.

Take `CC[C@@]1(O)C(=O)OCc2c1cc1n(c2=O)Cc2cc3cc4c(cc3nc2-1)OCO4` [10,11-methylene dioxycamptothecin]: the “activity in preclinical studies” value in data set [1] (preclinical studies) is on record as “very active in preclinical studies”. In data set [2], the water solubility result is listed as “relatively insoluble in water”.

On to `CCc1c2c(nc3cc(O)ccc13)-c1cc3c(c(=O)n1C2)COC(=O)[C@]3(O)CC` [11,7-HECPT, 11-hydroxy-7-ethyl camptothecin], for which the solubility in [3] (setting [18]) was about 10000 µg/mL; in [3] (setting [19]) it was about 5000 µg/mL. Further, the antitumor activity entry in data set [1] (previously demonstrated) is listed as “previously demonstrated antitumor activity”.

On to `CC[C@@]1(O)C(=O)OCc2c1cc1n(c2=O)Cc2c-1nc1cc(O)ccc1c2OC` [11,7-HMCPT, 11-hydroxy-7-methoxy camptothecin], for which the solubility was about 10000 µg/mL in [3] (setting [18]) and about 5000 µg/mL in data set [3] (setting [19]). Besides, in data set [1] (previously demonstrated), the antitumor activity result is recorded as “previously demonstrated antitumor activity”. Further, in data set [2], the water solubility result was “poor water solubility”.

As for `CC[C@@]1(O)C(=O)OCc2c1cc1n(c2=O)Cc2cc3ccc(O)cc3nc2-1` [11-HCPT, 11-hydroxy camptothecin], in data set [1] (previously demonstrated), the antitumor activity entry is listed as “previously demonstrated antitumor activity”.

On to `CC[C@@]1(O)C(=O)OCc2c1cc1n(c2=O)Cc2cc3ccccc3nc2-1` [Camptothecin, camptothecin], for which the “toxicity of lactone form relative to sodium camptothecin” value in [4] is on record as 10 -fold. For the same molecule, in data set [5], the “DNA strand breaks in L1210 cells” value is given as “an increase in unexplained protein-free breaks”. The “inhibition of Topoisomerase I” value in [6] and in data set [8] was “inhibited” each time. The Toxicity result in data set [7] (camptothecin, Phase I trials, early 1970's) is “unpredictable myelosuppression and hemorrhagic cystitis”. In data set [7] (camptothecin, Phase I trials), the antitumor activity entry is given as “some antitumor activity”. Further, the water solubility entry in data set [2] was “highly water insoluble”. For the same molecule, in [9] (closed lactone vs non-lactone form), the “stabilization of the cleavable complex” value is “only the closed lactone form of camptothecin helps stabilize the cleavable complex”.

With `CCc1c2c(nc3ccc(O)cc13)-c1cc3c(c(=O)n1C2)COC(=O)[C@]3(O)CC` [SN38, 10-hydroxy-7-ethyl camptothecin], the “potency in generating single-strand DNA breaks relative to CPT-11” value in [10] is “approximately 1000 -fold”. Besides, the “inhibitory activity against topoisomerase I relative to CPT-11” value in [11] is recorded as 3600 -fold. In addition, the “CpMax of SN38 on increasing CPT-11 dose” value in [12] is “decrease in the CpMax of SN38”. Further, the “inhibition of Topoisomerase I” value in data set [6] and in data set [8] was “inhibited” each time. In data set [13], the “plasma concentration of SN38 in mice” value is recorded as “maintained longer after CPT-11 administration than after treatment with SN38”. Also, in [14], the “overall fractional concentration of the lactone species” value is “fairly constant through a range of doses”. In addition, the water solubility entry in [2] is reported as “poorly soluble in water”. The “anti-tumor activity compared to CPT-11 in vivo” value in data set [15] is reported as “little anti-tumor activity compared to CPT-11”.

For the molecule `COc1cc([C@@H]2c3cc4c(cc3[C@@H](O[C@@H]3O[C@@H]5CO[C@@H](C)O[C@H]5[C@H](O)[C@H]3O)[C@H]3COC(=O)[C@H]23)OCO4)cc(OC)c1O` [etoposide], in [16], the “bioavailability following oral administration” value was “substantially equivalent to that achieved by intravenous administration”.

Take `CC[C@@](O)(C(=O)O)c1cc2n(c(=O)c1CO)Cc1cc3ccccc3nc1-2` [sodium camptothecin]: in data set [7] (sodium camptothecin, Phase II studies), the Toxicity result is “unpredictable and severe myelosuppression, gastrointestinal toxicity, hemorrhagic cystitis, and alopecia”. In addition, the antitumor activity result in data set [7] (sodium camptothecin, clinical trials) was “lack of significant anti-tumor activity”.

Turning to `CC[C@@]1(O)C(=O)OCc2c1cc1n(c2=O)Cc2cc3c(CN(C)C)c(O)ccc3nc2-1` [topotecan], in data set [1] (compared with parent compound camptothecin), the antitumor activity entry was “retain the significant antitumor activity of the parent compound”. Also, the Toxicity entry in data set [17] is “less sporadic toxicities”. For the same molecule, the “Topo I inhibition” value in [9] is listed as “Topo I inhibitor”.
